Values quoted from earlier work, collected in patent US9556167B2, “TLR-agonist-conjugated antibody recruiting molecules (TLR-ARMs)” (YALE UNIVERSITY, priority 2012, dated 2017).

Assays:
[1] = test system: advanced prostate cancer patients
[2] = test system: aggressive end-stage prostate cancer

Compound | prolongation of life on average [1] [months] | patients with reduced PSA levels and tumor sizes [2]
CC(=O)O[C@@]12CO[C@@H]1C[C@H](O)[C@@]1(C)C(=O)[C@H](O)C3=C(C)[C@@H](OC(=O)[C@H](O)[C@@H](NC(=O)OC(C)(C)C)c4ccccc4)C[C@@](O)([C@@H](OC(=O)c4ccccc4)[C@H]21)C3(C)C [Taxotere] | 2.5 | 
CC(=O)O[C@H]1CC[C@@]2(C)C(=CC[C@@H]3[C@@H]2CC[C@]2(C)C(c4cccnc4)=CC[C@@H]32)C1 [abiraterone acetate] |  | ≤ 70 % of patients
